Literature values as cited in patent US20170209405A1, “APPLICATION OF COMPOUND MIXTURES TO CONTROL OXIDATION” (priority 2016, published 2017).

Tests used:
[1] = adults
[2] = tested on: sperm DNA damage (DNA-strand breaks); settings: men aged 45 and up, highest dosages of vitamin C (up to 700 mg daily)

SMILES | dose above which it may be toxic to the liver [1] | less DNA damage than those who took less of the supplements [2]
NC(=O)c1cccnc1 [nicotinamide] | exceeding 3 g/day | 
O=C1O[C@H]([C@@H](O)CO)C(O)=C1O [vitamin C] |  | 20%
